In patent publication US9200003B2, “Crystalline forms of 1-(5′-(5-(3,5-dichloro-4-fluorophenyl)-5-(trifluoro-methyl)-4,5-dihydroisoxazol-3-yl)-3′H-spiro[azetidine-3,1′-isobenzofuran]-1-yl)-2-(methylsulfonyl) ethanone” (Zoetis Services LLC, priority 2012, dated 2015):
In brackets after ≈: the same amount, converted by molar mass. Where two headings read alike, the source gives them in different places.

Experiment: Solubility of the solid-state forms in organic solvents
Format: physicochemical
Conditions: for solubility: organic solvent or mixture

Q: What does the source list for `CS(=O)(=O)CC(=O)N1CC2(C1)OCc1cc(C3=NOC(c4cc(Cl)c(F)c(Cl)c4)(C(F)(F)F)C3)ccc12` (racemic) [crystal racemate, (S/R)-1-(5′-(5-(3,5-dichloro-4-fluorophenyl)-5-(trifluoromethyl)-4,5-dihydroisoxazol-3-yl)-3′H-spiro[azetidine-3,1′-isobenzofuran]-1-yl)-2-(methylsulfonyl)ethanone]?
A: solubility in acetone (acetone, room temperature (approximately 22° C.)): less than 10 mg/mL; solubility in methyl t-butyl ether (methyl t-butyl ether): < 1 mg/mL

Q: Which solubility (methyl t-butyl ether, read-out: solubility in methyl t-butyl ether) does the source give for `CS(=O)(=O)CC(=O)N1CC2(C1)OCc1cc(C3=NO[C@@](c4cc(Cl)c(F)c(Cl)c4)(C(F)(F)F)C3)ccc12` [Form A, (S)-1-(5′-(5-(3,5-dichloro-4-fluorophenyl)-5-(trifluoromethyl)-4,5-dihydroisoxazol-3-yl)-3′H-spiro[azetidine-3,1′-isobenzofuran]-1-yl)-2-(methylsulfonyl)ethanone] here?
A: 11 mg/mL (≈ 18.9 mM)

Q: What about the solubility (acetone, room temperature (approximately 22° C.), read-out: solubility in acetone) of the same compound?
A: > 300 mg/mL
